The values that follow come from US10076535B2, “Use of CPG oligonucleotides co-formulated with an antibiotic to accelerate wound healing” (THE UNITED STATES OF AMERICA, as represented by the …, priority 2012, dated 2018).

One series concerns IFNa. Briefly: Quantitative RT-PCR of mRNA at the wound site. In kind it is in vivo, mice. Particulars: day 3 after biopsy. As for the experimental part: (§1) Tissue from the biopsy site was excised, homogenized in Trizol, and extracted with chloroform. […] 1 μg of total RNA was reverse-transcribed using the QUANTITECT™ Reverse Transcription. Kit (QIAGEN®). Purified cDNA was used as the template for quantitative RT-PCR conducted using pre-designed primer/probe sets for interleucin (IL)-1β, CCL2, IFNa, IFNβ, basic fibroblast growth factor (FGF), transforming growth factor (TGF)β, and glyceraldehyde 3-phosphate dehydrogenase (GAPDH) (Applied Biosystems, Foster City, Calif.). Gene expression levels were analyzed using the STEPONEPLUS™ RT-PCR system (APPLIED BIOSYSTEMS®). All reagents and probes used in this system were purchased from APPLIED BIOSYSTEMS®.

For the next series, the system named is CCL2 mRNA. Kind of series: Quantitative RT-PCR of mRNA at the wound site. In kind it is in vivo, mice. The note with it: added to antibiotic ointment; day 3; p<0.05. As for the experimental part:
as §1

Another series has as its system IFNβ. Kind of series: Quantitative RT-PCR of mRNA at the wound site. Format: in vivo, mice. The note with it: day 3 after biopsy. On the procedure:
as §1

The subject of the next series is b-FGF. Kind of series: Quantitative RT-PCR of mRNA at the wound site. In kind it is in vivo, mice. Particulars: Bx sites on day 3. On the procedure: (§2) FIG. 6 is a bar graph of the effect of antibiotic ointment on the levels of b-FGF and TGFβ mRNA. Mice were treated as described in FIG. 3. Total RNA was extracted from the Bx sites on day 3. Quantitative RT-PCR was performed to detect b-FGF and TGFβ. Results represent the mean±SE of at least 4 independent samples/treatment group. *p<0.05 vs untreated group.
as §1

A further series concerns TGFβ. Kind of series: Quantitative RT-PCR of mRNA at the wound site. Format: in vivo, mice. The note with it: Bx sites on day 3. As for the experimental part: as §2, §1
For a further series, the system named is BALB/c mice. Briefly: Murine in vivo wound repair model (6 mm full-thickness excisional punch biopsy). The note with it: for effect on delay in wound healing caused by antibiotic: TLR ligand incorporated into / co-administered with antibiotic ointment; for effect on wound healing: simply applied over a pre-existing layer of antibiotic ointment or petrolatum. On the procedure:
The wound repair model of Devalaraja et al (J Invest Dermatol 2000; 115: 234-44) was used. Skin on the back was shaved and treated antibiotic ointment or petrolatum. In some studies, mice were injected s.c. at the base of the tail with 50 ug/g of vancomycin and imipenrm/cilastatin (Fernandez et al., Antimicrob Agents Chemother 2010; 54: 116-25, 2010). Fourteen days later, the mice were anesthetized by intraperitoneal injection of ketamine (80 μg/g) plus xylazine (10 ug/g). The skin on the back was gently cleaned with PBS. A 6 mm full-thickness excisional punch biopsy (including the Pannilulus carnosus) was taken using an ACU-PUNCH® (Fort Lauderdale, Fla.) from the right and left upper paravertebral region of each animal. Individual biopsy sites were coated with 100 μl of antibiotic ointment±50 μg CpG ODN and/or 5 μg IMQ, and then covered with nonadhesive sterile gauze (Sato et al., Wound Repair Regen 2010; 18: 586-93). Mice were wrapped with a form-fitting bandage to further protect the biopsy sites. Wound contraction was recorded every other day by digital photography and changes calculated using NIH Image J software (available on the internet, version 1.37). Each treatment was tested and results averaged in a minimum of five independent animals/group.
A well-established murine model of wound healing was used to evaluate the effect of antibiotic treatment on the rate of wound repair (Devalaraja et al., J Invest Dermatol 2000; 115: 234-44). Identical full-thickness excisional biopsies were taken from skin sites treated with either antibiotic ointment or petrolatum (different treatments were administered to contralateral sides of each animal). Sequential photographs provided a permanent record of the speed of wound closure. Untreated biopsy sites and sites treated with petrolatum (ointment control), healed at nearly identical rates.

For the next series, the system named is mice. Particulars: topical administration; cited from earlier work.
A further series relates to IL-1β mRNA. Briefly: Quantitative RT-PCR of mRNA at the wound site. In kind it is in vivo, mice. The note with it: added to antibiotic ointment; day 3; p<0.05. On the procedure:
as §1

A further series deals with macaques. The note with it: topical administration; cited from earlier work.

“Also recorded” adds a separate entry of the source.

Take `CC(C)Cn1cnc2c(N)nc3ccccc3c21` [IMQ, 1-isobutyl-1H-imidazo[4,5-c]quinolin-4-amine, reference compound]: the “expression of IFNa at the biopsy site” value in the series with IFNa is “reversed”. Further, in the series with CCL2 mRNA, the “effect on antibiotic-reduced CCL2 mRNA level” value was “to a lesser extent IMQ corrected these defects”. Further, the “expression of IFNβ at the biopsy site” value in the series with IFNβ was “reversed”. For the same compound, the “expression of b-FGF at the wound site” value in the series on b-FGF was “increased”. Moreover, the “expression of mRNA encoding TGFβ” value in the series on TGFβ is “up-regulated”. In the series on BALB/c mice, the “effect on delay in wound healing caused by antibiotic” value is recorded as “completely corrected the delay in wound healing; also recorded: reversed” and the “effect on wound healing” value is “no effect on wound healing”.
Regarding “CpG ODN: Phosphorothioate K-type CpG ODN 1555, sequence GCTAGACGTTAGCGT, SEQ ID NO: 30 (DNA, all phosphorothioate, methylation of C not given here)”, in the series with mice, the wound closure entry is listed as “significantly accelerated wound closure”. For the same compound, the “expression of IFNa at the biopsy site” value in the series on IFNa is given as “reversed”. Besides, the “effect on antibiotic-reduced CCL2 mRNA level” value with CCL2 mRNA was “corrected these defects”. For the same compound, in the series on IL-1β mRNA, the “effect on antibiotic-reduced IL-1β mRNA level” value was “corrected these defects”. The “expression of IFNβ at the biopsy site” value in the series on IFNβ was “reversed”. Moreover, in the series on macaques, the wound closure result is listed as “significantly accelerated wound closure”. Moreover, the “expression of b-FGF at the wound site” value in the series on b-FGF is recorded as “increased”. In addition, the “expression of mRNA encoding TGFβ” value with TGFβ is listed as “up-regulated”. For the same compound, in the series on BALB/c mice, the “effect on delay in wound healing caused by antibiotic” value is “completely corrected the delay in wound healing; also recorded: reversed” and the “effect on wound healing” value was “no effect on wound healing”.
